Assay results from publication PMC2642990, “The Glycogen-Binding Domain on the AMPK β Subunit Allows the Kinase to Act as a Glycogen Sensor” (Cell Metabolism, 2009).

Legend:
[1] = biological target: T1, recombinant AMPK complex (myc-α1:β1:γ1) (Rattus norvegicus, UniProt P80386); test: recombinant wild-type AMPK expressed in CCL13 cells, assayed in anti-myc immunoprecipitates; format: biochemical; conditions: 2 mM; Figure 6C
T1 construct: recombinant AMPK complex (myc-α1:β1:γ1) containing full-length (1–270) or truncated β1 subunit lacking the GBD (172–270); made in house; host or cells: human CCL13 cells, co-transfected; isolated by anti-myc immunoprecipitation
T1 sequence (P80386 whole entry, the tested form may be a part): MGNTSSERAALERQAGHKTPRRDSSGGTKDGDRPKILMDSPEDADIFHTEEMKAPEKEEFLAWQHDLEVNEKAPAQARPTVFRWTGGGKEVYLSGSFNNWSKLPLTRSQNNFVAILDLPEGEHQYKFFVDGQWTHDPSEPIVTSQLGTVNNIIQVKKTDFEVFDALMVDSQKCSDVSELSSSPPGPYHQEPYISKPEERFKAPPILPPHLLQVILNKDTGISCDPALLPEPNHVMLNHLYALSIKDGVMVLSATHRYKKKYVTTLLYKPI
T1 sequence (P54645 13-559 partner limits assumed): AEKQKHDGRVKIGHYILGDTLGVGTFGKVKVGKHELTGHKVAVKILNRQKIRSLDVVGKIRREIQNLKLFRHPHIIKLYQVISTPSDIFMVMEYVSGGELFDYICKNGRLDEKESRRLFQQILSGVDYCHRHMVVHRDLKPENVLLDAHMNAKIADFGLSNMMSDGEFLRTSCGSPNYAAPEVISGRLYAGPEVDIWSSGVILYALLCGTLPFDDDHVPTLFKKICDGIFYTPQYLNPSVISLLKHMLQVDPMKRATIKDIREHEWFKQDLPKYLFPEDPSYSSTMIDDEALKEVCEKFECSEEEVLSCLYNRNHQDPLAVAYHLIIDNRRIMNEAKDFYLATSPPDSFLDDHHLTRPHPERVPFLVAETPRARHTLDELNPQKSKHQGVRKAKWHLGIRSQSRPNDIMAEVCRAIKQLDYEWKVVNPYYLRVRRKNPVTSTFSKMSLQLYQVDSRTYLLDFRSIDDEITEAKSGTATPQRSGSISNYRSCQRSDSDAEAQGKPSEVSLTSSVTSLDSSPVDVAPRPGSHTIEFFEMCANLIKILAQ
T1 sequence (P80385 whole entry partner, the tested form may be a part): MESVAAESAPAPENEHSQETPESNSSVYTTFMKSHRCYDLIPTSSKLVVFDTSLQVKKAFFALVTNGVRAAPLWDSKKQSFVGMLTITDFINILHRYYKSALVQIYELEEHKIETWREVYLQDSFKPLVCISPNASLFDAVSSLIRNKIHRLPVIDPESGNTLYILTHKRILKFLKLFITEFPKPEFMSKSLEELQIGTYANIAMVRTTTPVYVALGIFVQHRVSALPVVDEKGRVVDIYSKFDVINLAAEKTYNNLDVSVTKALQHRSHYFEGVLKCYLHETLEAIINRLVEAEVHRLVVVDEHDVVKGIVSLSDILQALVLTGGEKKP
Source text: Figure 2 Allosteric Inhibition of AMPK by Different Glycogen Preparations (A) Concentration dependence of inhibition of native rat liver AMPK by preparations of bovine and rat liver glycogen; glycogen concentrations expressed as glucose produced after total hydrolysis. Data were fitted to an IC50 equation (see Supplemental Experimental Procedures), and curves were generated using the estimated best-fit parameters. (B) Concentration dependence of inhibition of native rat liver AMPK by bovine liver glycogen in the presence and absence of 200 μM AMP; curves were generated as in (A). (C) Inhibition by bovine liver glycogen of recombinant AMPK complex (myc-α1:β1:γ1) containing full-length (1–270) or truncated β1 subunit lacking the GBD (172–270). Complexes were expressed in CCL13 cells and purified by immunoprecipitation prior to assay with or without glycogen (200 mM glucose equivalents). Data are means ± SEM (n = 3). ^∗Activity different from control without glycogen by t test (p < 0.05). […] Results are expressed as percentages of the activity in controls without glycogen, and data are mean ± SEM (n = 3). […]

native rat liver AMPK = native rat liver AMPK (Rattus norvegicus, UniProt P80386); test: AMPK kinase assay (SAMS peptide), native rat liver AMPK in solution; format: biochemical; conditions: up to 100 mM
Chain of native rat liver AMPK (P80386 2-270): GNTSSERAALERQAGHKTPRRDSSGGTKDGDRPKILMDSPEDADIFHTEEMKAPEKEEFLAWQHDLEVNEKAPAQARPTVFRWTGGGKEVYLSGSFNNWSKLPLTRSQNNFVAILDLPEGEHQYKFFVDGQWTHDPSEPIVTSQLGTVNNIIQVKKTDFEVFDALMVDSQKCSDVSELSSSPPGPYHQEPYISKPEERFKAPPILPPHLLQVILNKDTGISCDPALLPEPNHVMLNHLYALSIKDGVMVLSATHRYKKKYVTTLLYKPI
Chain of native rat liver AMPK (P54645 whole entry partner): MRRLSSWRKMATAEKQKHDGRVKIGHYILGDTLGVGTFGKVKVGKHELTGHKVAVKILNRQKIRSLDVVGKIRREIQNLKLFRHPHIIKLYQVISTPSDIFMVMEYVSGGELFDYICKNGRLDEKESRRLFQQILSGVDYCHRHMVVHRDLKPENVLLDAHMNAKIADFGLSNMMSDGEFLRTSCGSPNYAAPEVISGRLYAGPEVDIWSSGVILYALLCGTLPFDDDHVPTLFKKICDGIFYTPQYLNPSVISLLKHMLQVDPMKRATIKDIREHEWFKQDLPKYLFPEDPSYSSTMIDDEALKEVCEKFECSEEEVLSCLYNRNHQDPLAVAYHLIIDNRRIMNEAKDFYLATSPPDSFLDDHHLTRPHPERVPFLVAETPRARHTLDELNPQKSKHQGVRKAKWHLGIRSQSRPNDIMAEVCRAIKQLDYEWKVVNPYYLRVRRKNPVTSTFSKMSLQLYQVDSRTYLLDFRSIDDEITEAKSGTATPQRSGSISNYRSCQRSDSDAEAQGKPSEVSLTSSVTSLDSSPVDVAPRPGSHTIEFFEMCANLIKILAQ
Chain of native rat liver AMPK (Q09137 whole entry partner): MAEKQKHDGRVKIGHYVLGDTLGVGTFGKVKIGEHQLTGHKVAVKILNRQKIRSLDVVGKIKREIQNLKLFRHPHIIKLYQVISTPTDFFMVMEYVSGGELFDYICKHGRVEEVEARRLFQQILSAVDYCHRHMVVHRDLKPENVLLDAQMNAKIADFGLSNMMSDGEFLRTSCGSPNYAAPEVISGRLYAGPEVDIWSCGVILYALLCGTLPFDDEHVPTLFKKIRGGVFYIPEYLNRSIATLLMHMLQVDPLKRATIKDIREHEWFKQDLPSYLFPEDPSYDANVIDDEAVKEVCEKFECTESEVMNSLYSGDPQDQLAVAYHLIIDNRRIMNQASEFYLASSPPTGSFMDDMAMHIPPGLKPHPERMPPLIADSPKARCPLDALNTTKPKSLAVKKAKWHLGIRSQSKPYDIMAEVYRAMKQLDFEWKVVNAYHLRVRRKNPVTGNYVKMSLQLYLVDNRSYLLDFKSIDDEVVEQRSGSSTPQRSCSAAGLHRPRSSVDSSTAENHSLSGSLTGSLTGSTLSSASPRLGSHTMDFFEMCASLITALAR
Chain of native rat liver AMPK (P80385 whole entry partner): as the sequence (P80385 whole entry partner, the tested form may be a part) above
Method: We next tested the effect of glycogen on the activity of the native AMPK complex purified from rat liver ([Hawley et al., 1996]). […] The bovine liver glycogen inhibited AMPK completely with an IC50 (concentration causing half-maximal inhibition) of 30 ± 9 mM glucose equivalents (Figure 2A).
Figure 2 Allosteric Inhibition of AMPK by Different Glycogen Preparations (A) Concentration dependence of inhibition of native rat liver AMPK by preparations of bovine and rat liver glycogen; glycogen concentrations expressed as glucose produced after total hydrolysis. Data were fitted to an IC50 equation (see Supplemental Experimental Procedures), and curves were generated using the estimated best-fit parameters. (B) Concentration dependence of inhibition of native rat liver AMPK by bovine liver glycogen in the presence and absence of 200 μM AMP; curves were generated as in (A). (C) Inhibition by bovine liver glycogen of recombinant AMPK complex (myc-α1:β1:γ1) containing full-length (1–270) or truncated β1 subunit lacking the GBD (172–270). Complexes were expressed in CCL13 cells and purified by immunoprecipitation prior to assay with or without glycogen (200 mM glucose equivalents). Data are means ± SEM (n = 3). ^∗Activity different from control without glycogen by t test (p < 0.05). (D) Inhibition by bovine liver glycogen (200 mM glucose equivalents) of purified, native rat liver AMPK (a mixture of α1β1γ1 and α2β1γ1 complexes) that had been recovered by immunoprecipitation (IP) using anti-α1, anti-α2, or a mixture of anti-α1/-α2 antibodies or assayed in solution without immunoprecipitation. Results are expressed as percentages of the activity in controls without glycogen, and data are mean ± SEM (n = 3). (E) Absorption spectra of bovine and rat liver glycogen preparations in complex with iodine. […]
Purification of Native Rat Liver, AMPK, Recombinant AMPK, and AMPK Assays AMPK was purified from rat liver as far as the gel filtration step (Hawley et al., 1996). The kinase was assayed using the SAMS peptide (Davies et al., 1989). IC50 values for inhibition were estimated by fitting data using GraphPad Prism to the equation: Activity = Residual + Maximum - (Maximum × [Inhibitor]/(IC50+[Inhibitor])) where Residual is the activity in the presence of maximal inhibition, Maximum is the maximal inhibition and [inhibitor] is the concentration of the inhibitory molecule. For recombinant AMPK, constructs encoding myc-tagged α1, β1 and γ1 subunits of AMPK were co-transfected into CCL13 cells using modifications of previous methods (Woods et al., 1996). DNA (10 µg) was dissolved in sterile water (450 µl) to which 50 μl of 2.5 M CaCl2 was added, and the solution vortexed for 1 min. […]

GBD = biological target: T2, GBD (Rattus norvegicus, UniProt P80386); test: binding of linear oligosaccharides to the GBD (data not shown)
T2 construct: The rat β1 GBD (residues 70-172 was cloned into pGEX6P2, expressed in Escherichia coli (BL21)); GST (N); made in house; host or cells: E. coli BL21 (inferred)
T2 sequence (P80386 70-172): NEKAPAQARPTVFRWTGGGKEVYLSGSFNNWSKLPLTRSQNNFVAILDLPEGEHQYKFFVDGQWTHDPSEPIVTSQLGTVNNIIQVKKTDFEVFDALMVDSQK

[2] = biological target: bacterially expressed rat β1 GBD; set-up: method as in Koay et al. (2007); conditions: NMR method; ref Koay et al. (2007); read-out: KD for binding to rat β1 GBD; cited from earlier work
rat β1 GBD = conditions: cited from earlier work; for concentration that displaces the β1 GBD from glycogen: ref Polekhina et al. (2005)
[3] = biological target: T3, recombinant α1β1γ1 complex with β1 GBD mutations (W100G/W133A and others) (Rattus norvegicus, UniProt P80386, W100G/W133A); test: recombinant AMPK with GBD point mutations in β1, assayed in immunoprecipitates; format: biochemical; conditions: 2 mM; Figure 4B
T3 construct: we made mutations in full-length β1 coexpressed with α1 and γ1 in CCL13 cells; made in house; host or cells: human CCL13 cells, co-transfected; isolated by anti-myc immunoprecipitation
T3 sequence (P80386 2-270 W100G/W133A): as the sequence (P80386 2-270) above, with W99G, W132A counted along it
T3 sequence (P54645 whole entry partner): as the sequence (P54645 whole entry partner) above
T3 sequence (P80385 whole entry partner): as the sequence (P80385 whole entry partner, the tested form may be a part) above
Source text: To test whether mutations that interfered with the binding of glycogen to the GBD also affected inhibition of AMPK by glycogen, we made mutations in full-length β1 coexpressed with α1 and γ1 in CCL13 cells, isolated the complex by immunoprecipitation via the myc tag on α1, and assayed the kinase activity in the presence and absence of glycogen. The activities were adjusted to correct for slight variation in recovery of the α1 subunit assessed by blotting (inset in Figure 3A). […] Because all of these assays were conducted in resuspended immunoprecipitates, the degree of inhibition of the wild-type was < 50%, as discussed in the previous section. […]
Figure 3 Effect of β Subunit Mutations on Inhibition of Recombinant AMPK Complexes by Glycogen (A) Myc-α1, γ1, and β1 with the wild-type sequence or the indicated mutations were expressed in CCL13 cells, immunoprecipitated, and assayed ± bovine liver glycogen (200 mM glucose equivalents); results are mean ± SEM (n = 3). […] (C) Myc-α1, γ1, and β1 with the wild-type sequence or with W100G/W133A mutations were expressed in CCL13 cells, immunoprecipitated using anti-myc (left) or anti-FLAG (right) antibodies, and analyzed by western blotting using anti-myc antibodies (top panels) or a mixture of anti-β1 and -γ1 antibodies (bottom panels). […]

Compound	inhibition of wild-type recombinant α1β1γ1 [1]	inhibition at concentrations up to 100 mM (native rat liver AMPK)	binding to the GBD (GBD)	Kd [2] [µM]	concentration that displaces the β1 GBD from glycogen (rat β1 GBD)	inhibition of W100G/W133A mutant [3]	competition with glycogen for binding to the GBD (rat β1 GBD; ref Polekhina et al. (2003, 2005))
CO[C@H]1O[C@H](CO)[C@@H](O[C@H]2O[C@H](CO)[C@@H](O)[C@H](O)[C@H]2O)[C@H](O)[C@H]1O [Oligosaccharide 8, methyl α-maltoside]	not significant						
OC[C@H]1O[C@H](O[C@H]2[C@H](O)[C@@H](O)C(O)O[C@@H]2CO)[C@H](O)[C@@H](O)[C@@H]1O (mixture of isomers) [maltose]		did not cause any inhibition					
maltohexaose		almost no inhibition	could bind	700	greater than 1 mM		
OC[C@H]1O[C@@H]2O[C@H]3[C@H](O)[C@@H](O)[C@@H](O[C@H]4[C@H](O)[C@@H](O)[C@@H](O[C@H]5[C@H](O)[C@@H](O)[C@@H](O[C@H]6[C@H](O)[C@@H](O)[C@@H](O[C@H]7[C@H](O)[C@@H](O)[C@@H](O[C@H]8[C@H](O)[C@@H](O)[C@@H](O[C@H]1[C@H](O)[C@H]2O)O[C@@H]8CO)O[C@@H]7CO)O[C@@H]6CO)O[C@@H]5CO)O[C@@H]4CO)O[C@@H]3CO [β-cyclodextrin]				300		abolished	can compete
maltoheptaose		almost no inhibition	could bind	400	greater than 1 mM		
